Like-named read-outs stand apart in the source and are kept apart here.
How the values were obtained:
[1] = test system: murine fibrosarcomas (RIF-1 cells)
Description: In each Example, the tumors were followed until they reached a size of four times their day zero treatment volume (TVQT), or up to 30 days after treatment, whichever came first. The data is expressed as the “tumor volume quadrupling time” (TVQT) mean and as the “delay.” Mean TVQT is the mean days required for individual tumors to grow to four times the tumor volume at the initial treatment day. […] The data is also expressed as the ratio of the tumor volume quadrupling time of the treated tumor over the untreated control group (TVQT/CTVQT). Increasing values of this ratio indicate increased antitumor response.

[2] = test system: RIF-1 murine fibrosarcoma; experiment: RIF-1 tumor growth delay, thiocolchicine alone and with cisplatin, camptothecin or amonafide (Example 6); format: in vivo, C3H mice; details: Ex# E047
Description: Cisplatin for Injection, USP, was obtained as the commercial product from Bristol Laboratories (Platinol®, Lot No. K1F26A). Camptothecin was obtained from Boehinger-Ingelheim Lot 142088. Amonafide dihydrochloride was prepared in house, in a solution of 20 mg/ml. 0.9% Sodium Chloride for Injection, USP (saline) was manufactured by Abbott Laboratories (Lot No. 55-199-DK). Sterile Water for Injection, USP (WFI) was manufactured by Lyphomed, Inc. (Lot No. 390849). DMSO was obtained from Sigma (St. Louis, Mo.). DMF (dimethylformamide) was obtained from Sigma (St. Louis, Mo.). PEG400 was obtained from Sigma (St. Louis, Mo.).
For preparation of cisplatin formulation, the contents of a 10-mg vial of lyophilized CDDP (Cisplatin for Injection) was resuspended with 10 mL WFI to produce a 1 mg/mL CDDP suspension.
Camptothecin was prepared in a solution of DMSO at 0.75 mg/ml.
This was further diluted using saline to […].
Amonafide was diluted to 15 mg/ml with saline.
Food and water were available ad libitum.
Tumors: The RIF-1 murine fibrosarcoma cell line was maintained in in vitro culture (Wayrnouth medium supplemented with 20% fetal bovine serum) at 37° C. in a humidified 5% CO2 incubator. Log-phase RIF-1 cells were trypsinized and harvested from cell culture flasks to yield a concentration of 4×10^6 cells/mL, then injected intradermally in a volume of 50 μL (equivalent to 2×10^5 cells per injection) into both flanks of each mouse. Nine days later, when tumors reached approximately 100 mm^3 in size, the animals were randomized to different treatment groups.
Evaluation of Tumor Growth Delay: Tumors were measured three times weekly for up to 22 days with Vernier calipers. Tumor volume (cubic millimeters, mm^3) was calculated according to the formula: [formula] in which D1-3 are perpendicular diameters measured in millimeters (mm). Tumor volume quadrupling time (TVQT), defined as the time required for a tumor to grow to four times (4×) its initial volume (at the time of treatment), was used as a study endpoint.
The TVQT was determined for each treatment group and expressed in days as the mean±standard error (SE).

[3] = test system: murine fibrosarcomas (RIF-1 cells); format: in vivo, C3H mice
Description: (§1) For the examples below, transplantable experimental murine fibrosarcomas (2×10^5 RIF-1 cells) were grown intradermally in the flank s of 3 month old female C3H mice (Charles River, Holister, Calif.). When the tumors reached a volume of approximately 100 mm^3, the mice were randomly assigned to each experimental group (4 mice per group).
(§2) Colchicine was obtained from Sigma-Aldrich (St. Louis, Mo.) and was made to the appropriate concentration in water for injection. After the treatments described below, the growth of the tumors was monitored three times per week by caliper measurements of three perpendicular diameters of the tumor. The tumor volume was calculated from the formula: V=π/6×D1×D2×D3, where D1-3 are the diameter measurements in mm.
(§3) In each Example, the tumors were followed until they reached a size of four times their day zero treatment volume (TVQT), or up to 30 days after treatment, whichever came first. The data is expressed as the “tumor volume quadrupling time” (TVQT) mean and as the “delay.” Mean TVQT is the mean days required for individual tumors to grow to four times the tumor volume at the initial treatment day. The “delay” is the median of days required for a tumor to grow to four times the mean size of the treated group, minus the median of days required to grow to four times the mean size of the control group. The data is also expressed as the ratio of the tumor volume quadrupling time of the treated tumor over the untreated control group (TVQT/CTVQT). Increasing values of this ratio indicate increased antitumor response.
Cisplatin (David Bull Laboratories—Mulgrave, Australia, lot. 5201844x) was made to the appropriate concentration in water for injection. Colchicine was given orally in a volume of 100 μl. Cisplatin was injected systemically (i.e., intraperitoneally, i.p.), in a volume of 100 μl. For the treatment of group 3, colchicine was given orally immediately prior to the intraperitoneal injection of cisplatin. The experimental compositions were prepared as described in Table 7.

[4] = test system: murine fibrosarcomas (RIF-1 cells); format: in vivo, C3H mice; remark: listed apart in the source
Description: as §1, §2, §3
Paclitaxel was obtained prediluted at 1 mg/ml in a cremaphor/ethanol solution. Colchicine was given at a dose of 2 mg/kg and paclitaxel was given, for each injection, at a dose of 10 mg/kg. For group 4, a total of three paclitaxel injections were given, one each on days 0, 3 and 5. The compositions were injected systemically (i.e., intraperitoneally, i.p.), in a volume of 100 μl.

[5] = test system: murine fibrosarcomas (RIF-1 cells); experiment: RIF-1 tumor growth delay, single-dose colchicine with camptothecin (Example 2A); format: in vivo, C3H mice
Description: as §1, §2, §3
A. Effect of Single Doses of Colchicine Administered Concurrently with Camptothecin Camptothecin (Boehringer Ingelheim-Lot 71012) was made to the appropriate concentration in DMSO. Colchicine was given orally in a volume of 100 μl. Camptothecin was injected systemically (i.e., intraperitoneally, i.p.), in a volume of 100 μl. For the treatment of group 3, colchicine was given orally immediately prior to the intraperitoneal injection of camptothecin. The experimental compositions were prepared as described in Table 4.

[6] = test system: murine fibrosarcomas (RIF-1 cells); experiment: RIF-1 tumor growth delay, single or multiple colchicine doses in mixed sequence with camptothecin (Example 2B); format: in vivo, C3H mice
Description: as §1, §2, §3
In FIG. 5, the arrow indicates a one hour interval separating treatment with each agent. The experimental compositions were prepared as described above. In two treatment groups, colchicine was administered orally in three doses (“colch×3” or “colchicine×3”). When three dosages of colchicine were administered, the first was given one hour after the administration of camptothecin (day 0), the second on day 1 and the third on day 2.

[7] = test system: murine fibrosarcomas (RIF-1 cells); format: in vivo, C3H mice; remark: listed apart in the source
Description: as §1, §2, §3
Etoposide (Sigma-Aldrich, lot. 46H078) was made to the appropriate concentration in DMSO. Etoposide and colchicine were injected systemically (i.e., intraperitoneally, i.p.), in a volume of 100 μl. The experimental compositions were prepared as described in Table 2.

[8] = vinblastine 1 mg/kg i.p., 3× (days 0, 3, 6)
[9] = vinblastine 1 mg/kg i.p., 4× (days 0, 3, 6, 8)
[10] = paclitaxel 10 mg/kg i.p., 3× (days 0, 3, 5)
[11] = paclitaxel 10 mg/kg i.p., given once
[12] = colchicine 2 mg/kg i.p. (Table 11: 1 mg/kg)
[13] = colchicine 10 mg/kg oral × 3 (days 0, 1, 2)
[14] = colchicine 10 mg/kg oral, single dose

## CC[C@]1(O)C[C@@H]2CN(CCc3c([nH]c4ccccc34)[C@@](C(=O)OC)(c3cc4c(cc3OC)N(C)[C@H]3[C@@](O)(C(=O)OC)[C@H](OC(C)=O)[C@]5(CC)C=CCN6CC[C@]43[C@@H]65)C2)C1 [Vinblastine]
[1]; group 7: vinblastine days 0, 3, colchicine day 6, vinblastine day 8
  Tumor growth delay curve when vinblastine was given after colchicine: renewed sensitivity to vinblastine
[1]; vinblastine 1 mg/kg i.p., 1×
  Delay: 0.11 days
  Mean TVQT ± S.E.: 6.6 ± 0.4 days
  Median (TVQT): 6.2 days
  TVQT/CTVQT: 1.0
[1]; [8]
  Mean TVQT ± S.E.: 8.9 ± 0.9 days
  Median (TVQT): 7.8 days
  TVQT/CTVQT: 1.4
[1]; [9]
  Mean TVQT ± S.E.: 8.4 ± .06 days
  Median (TVQT): 8.6 days
  TVQT/CTVQT: 1.2

## N.N.[Cl][Pt][Cl] [Cisplatin, cis-diamminedichloroplatinum II]
[2]; CDDP IP 4 mg/kg
  Days to 4× (ave ± SE): 9.44 ± 0.42 days
  Days to 4× Median: 9.22 days
  Delay: 1.66 days
  T/C: 1.2
[3]; cisplatin 4 mg/kg i.p.
  Delay: 1.45 days
  Median (TGD): 7.7 days
  TGD ± S.E.: 7.4 ± 0.3 days
  TGD/CTGD: 1.2

## CC(=O)O[C@H]1C(=O)[C@@]2(C)[C@H]([C@H](OC(=O)c3ccccc3)[C@]3(O)C[C@H](OC(=O)[C@H](O)[C@@H](NC(=O)c4ccccc4)c4ccccc4)C(C)=C1C3(C)C)[C@]1(OC(C)=O)CO[C@@H]1C[C@@H]2O [Paclitaxel]
[4]; RIF-1 model, paclitaxel 10 mg/kg i.p.
  Effectiveness of paclitaxel given 3 times versus once: slightly more effective
[4]; [10]
  Delay: 1.59 days
  Mean TVQT ± S.E.: 10.8 ± 1.9 days
  Median (TVQT): 9.0 days
  TVQT/CTVQT: 1.4
[4]; [11]
  Delay: 0.67 days
  Mean TVQT ± S.E.: 9.1 ± 0.7 days
  Median (TVQT): 8.1 days
  TVQT/CTVQT: 1.2

## CN(C)CCN1C(=O)c2cccc3cc(N)cc(c23)C1=O [Amonafide]
[2]; amonafide IP 60 mg/kg
  Days to 4× (ave ± SE): 9.8 ± 0.6 days
  Days to 4× Median: 10.1 days
  Delay: 2.55 days
  T/C: 1.3

## CC[C@@]1(O)C(=O)OCc2c1cc1n(c2=O)Cc2cc3ccccc3nc2-1 [Camptothecin, camptothecin]
[5]; camptothecin 6 mg/kg i.p.
  Delay: 3.60 days
  Mean TVQT ± S.E.: 9.4 ± 0.5 days
  Median (TVQT): 9.9 days
  TVQT/CTVQT: 1.5
[6]; CPT 6 mg/kg IP
  Days to 4× (Ave ± SE): 12.9 ± 0.5 days
  Delay: 5.45 days
  Median: 12.8 days
  T/C: 1.7
[2]; camptothecin IP 3 mg/kg
  Days to 4× (ave ± SE): 8.26 ± 0.46 days
  Days to 4× Median: 8.27 days
  Delay: 0.71 days
  T/C: 1.1

## COc1cc2c(c(OC)c1OC)-c1ccc(OC)c(=O)cc1[C@@H](NC(C)=O)CC2 [Colchicine, (S)-N-(5,6,7,9-tetrahydro-1,2,3,10-tetramethoxy-9-oxobenzo[a]heptalen-7-yl)acetamide]
[4]; [12]
  Delay: 3.34 days
  Mean TVQT ± S.E.: 11.3 ± 0.6 days
  Median (TVQT): 10.8 days
  TVQT/CTVQT: 1.5
[5]; both compounds (group 4) versus camptothecin alone or colchicine alone
  Effect of colchicine on the antiproliferative activity of camptothecin: more than additive effect
[5]; colchicine 10 mg/kg oral
  Delay: 0.02 days
  Mean TVQT ± S.E.: 6.4 ± 0.3 days
  Median (TVQT): 6.3 days
  TVQT/CTVQT: 1.0
[6]; [13]
  Days to 4× (Ave ± SE): 7.2 ± 0.3 days
  Delay: -0.04 days
  Median: 7.3 days
  T/C: 1.0
[6]; colchicine 10 mg/kg oral × 3 versus single dose
  Tumor growth delay, three doses of colchicine compared to a single dose: did not delay tumor growth significantly
[6]; [14]
  Days to 4× (Ave ± SE): 7.7 ± 0.4 days
  Delay: 0.32 days
  Median: 7.6 days
  T/C: 1.0
[1]; colchicine 1 mg/kg i.p.
  Delay: 1.15 days
  Mean TVQT ± S.E.: 7.2 ± 0.5 days
  Median (TVQT): 7.2 days
  TVQT/CTVQT: 1.1
[3]; both compounds (group 4) versus cisplatin alone or colchicine alone
  Effect of colchicine on the antiproliferative activity of cisplatin: more than additive effect
[3]; colchicine 10 mg/kg oral
  Delay: 0.02 days
  Median (TGD): 6.3 days
  TGD ± S.E.: 6.4 ± 0.3 days
  TGD/CTGD: 1.0
[7]; both compounds (group 4) versus etoposide alone or colchicine alone
  Effect of colchicine on the antiproliferative activity of etoposide: more than additive effect
[7]; colchicine 2 mg/kg i.p.
  Delay: 1.65 days
  Mean TVQT ± S.E.: 9.5 ± 0.2 days
  Median (TVQT): 9.3 days
  TVQT/CTVQT: 1.2

## COc1cc([C@@H]2c3cc4c(cc3[C@@H](O[C@@H]3O[C@@H]5CO[C@@H](C)O[C@H]5[C@H](O)[C@H]3O)[C@H]3COC(=O)[C@H]23)OCO4)cc(OC)c1O [Etoposide]
[7]; etoposide 10 mg/kg i.p.
  Delay: -0.17 days
  Mean TVQT ± S.E.: 7.7 ± 0.5 days
  Median (TVQT): 7.5 days
  TVQT/CTVQT: 1.0

Reference: patent publication US20050170015A1 (priority 2000, published 2005)
